Test results taken from patent US9388148B2, “Acylaminocycloalkyl compounds suitable for treating disorders that respond to modulation of dopamine D3 receptor” (AbbVie Deutschland GmbH & Co. KG, priority 2013, dated 2016).

What was measured:
[1] = Determination of the microsomal half-life / microsomal clearance; assay type: in vitro ADME; conditions: pH 7.4; human liver microsomes, 0.5 μM test substance, 0.25 mg protein/ml, NADPH, 37° C.; read-out: Human mCl (mikrosomal clearance)
Procedure: The metabolic stability of the compounds of the invention was determined in the following assay.
The test substances were incubated in a concentration of 0.5 μM as follows:
0.5 μM test substance are preincubated together with liver microsomes from different species (from rat, human or other species) (0.25 mg of microsomal protein/ml) in 0.05 M potassium phosphate buffer of pH 7.4 in microtiter plates at 37° C. for 5 min. The reaction is started by adding NADPH (1 mg/mL). After 0, 5, 10, 15, 20 and 30 min, 50 μl aliquots are removed, and the reaction is immediately stopped and cooled with the same volume of acetonitrile. The samples are frozen until analyzed. The remaining concentration of undegraded test substance is determined by MSMS. The half-life (T1/2) is determined from the gradient of the signal of test substance/unit time plot, it being possible to calculate the half-life of the test substance, assuming first order kinetics, from the decrease in the concentration of the compound with time. The microsomal clearance (mC1) is calculated from mC1=1n2/T1/2/(content of microsomal protein in mg/ml)×1000 [ml/min/mg] (modified from references: Di, The Society for Biomoleculur Screening, 2003, 453-462; Obach, DMD, 1999 vol 27. N 11, 1350-1359).

[2] = target: T1, human dopamine D2L receptors (long isoform) (Homo sapiens, UniProt P14416); test: Dopamine D2L receptor binding ([125I]iodospiperone displacement); conditions: selectivity ratio, human D2L vs human D3 binding
T1 construct: expressed in transfected cells; host or cells: HEK-293
Procedure: The substance to be tested was either dissolved in methanol/Chremophor® (BASF SE) or in dimethyl sulfoxide and then diluted with water to the desired concentration.
Each assay mixture was run in triplicate. • The incubation buffer contained 50 mM tris, 120 mM NaCl, 5 mM KCl, 2 mM CaCl2, 2 mM MgCl2 and 0.1% bovine serum albumin, 10 μM quinolone and 0.1% ascorbic acid (prepared fresh daily). […] Each assay mixture was run in triplicate. • The incubation buffer contained 50 mM tris, 120 mM NaCl, 5 mM KCl, 2 mM CaCl2, 2 mM MgCl2 and 0.1% bovine serum albumin. The buffer was adjusted to pH 7.4 with HCl. c) Measurement and analysis: • After having been incubated at 25° C. for 60 minutes, the assay mixtures were filtered through a Whatman GF/B glass fiber filter under vacuum using a cell col-lecting device. The filters were transferred to scintillation viols using a filter transfer system. After 4 ml of Ultima Gold® (Packard) have been added, the samples were shaken for one hour and the radioactivity was then counted in a Beta-Counter (Packard, Tricarb 2000 or 2200CA).

T1 sequence (P14416 whole entry, canonical isoform): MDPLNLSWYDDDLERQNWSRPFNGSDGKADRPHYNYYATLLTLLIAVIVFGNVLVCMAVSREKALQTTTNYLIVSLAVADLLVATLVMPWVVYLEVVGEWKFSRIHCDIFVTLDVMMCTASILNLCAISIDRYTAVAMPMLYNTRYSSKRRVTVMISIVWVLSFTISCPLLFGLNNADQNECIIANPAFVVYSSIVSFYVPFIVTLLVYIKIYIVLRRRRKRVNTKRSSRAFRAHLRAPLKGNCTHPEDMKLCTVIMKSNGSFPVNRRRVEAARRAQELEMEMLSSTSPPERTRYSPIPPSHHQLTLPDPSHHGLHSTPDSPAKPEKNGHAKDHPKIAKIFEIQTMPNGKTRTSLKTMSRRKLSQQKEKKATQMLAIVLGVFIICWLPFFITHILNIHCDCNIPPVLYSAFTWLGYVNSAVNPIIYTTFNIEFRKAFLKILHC

Structure (SMILES) | microsomal CLint at 0.5 μM [1] [µL/min/mg] | D2/D3, Ki (D2L)/Ki (D3) [2]
COCCc1cc(N2CCN(CC[C@H]3C[C@H](NC(=O)C4CCC(O)CC4)C3)CC2)nc(C(C)(C)C)n1 (relative stereo) [Compound 11, N-[trans-3-[2-[4-[2-tert-butyl-6-(2-methoxyethyl)pyrimidin-4-yl]piperazin-1-yl]ethyl]cyclobutyl]-4-hydroxy-cyclohexanecarboxamide] | 20 to 120 | ++ (++ >20)
CC(C)(C)c1nc(C2CCC2)cc(N2CCN(CC[C@H]3CC[C@H](NC(=O)[C@H]4CC[C@H](O)CC4)CC3)CC2)n1 [Compound 1, trans-N-[trans-4-[2-[4-(2-tert-butyl-6-cyclobutyl-pyrimidin-4-yl)piperazin-1-yl]ethyl]cyclohexyl]-4-hydroxy-cyclohexanecarboxamide] | 20 to 120 | +++ (+++ >50)
COCCc1cc(N2CCN(CC[C@H]3CC[C@H](NC(=O)[C@H]4CC[C@H](O)CC4)CC3)CC2)nc(C(C)(C)C)n1 [Compound 2, trans-N-[trans-4-[2-[4-[2-tert-butyl-6-(2-methoxyethyl)pyrimidin-4-yl]piperazin-1-yl]ethyl]cyclohexyl]-4-hydroxy-cyclohexanecarboxamide] | 20 to 120 | ++ (++ >20)
COCCc1cc(N2CCN(CC[C@H]3CC[C@@H](NC(=O)[C@H]4CC[C@H](O)CC4)CC3)CC2)nc(C(C)(C)C)n1 [Compound 3, trans-N-[cis-4-[2-[4-[2-tert-butyl-6-(2-methoxyethyl)pyrimidin-4-yl]piperazin-1-yl]ethyl]cyclohexyl]-4-hydroxy-cyclohexanecarboxamide] | 20 to 120 | ++ (++ >20)
COCCc1cc(N2CCN(CC[C@H]3CC[C@H](NC(=O)[C@H]4CC[C@@H](O)CC4)CC3)CC2)nc(C(C)(C)C)n1 [Compound 4, cis-N-[trans-4-[2-[4-[2-tert-butyl-6-(2-methoxyethyl)pyrimidin-4-yl]piperazin-1-yl]ethyl]cyclohexyl]-4-hydroxy-cyclohexanecarboxamide] | > 120 | ++ (++ >20)
COCCc1cc(N2CCN(CC[C@H]3CC[C@@H](NC(=O)[C@H]4CC[C@@H](O)CC4)CC3)CC2)nc(C(C)(C)C)n1 [Compound 5, Cis-N-[cis-4-[2-[4-[2-tert-butyl-6-(2-methoxyethyl)pyrimidin-4-yl]piperazin-1-yl]ethyl]cyclohexyl]-4-hydroxy-cyclohexanecarboxamide] | > 120 | ++ (++ >20)
CC(C)(C)c1nc(C2CCC2)cc(N2CCN(CC[C@H]3CC[C@@H](NC(=O)[C@H]4CC[C@H](O)CC4)CC3)CC2)n1 [Compound 6, trans-N-[cis-4-[2-[4-(2-tert-butyl-6-cyclobutyl-pyrimidin-4-yl)piperazin-1-yl]ethyl]cyclohexyl]-4-hydroxy-cyclohexanecarboxamide] | 20 to 120 | +++ (+++ >50)
COCCc1cc(N2CCN(CC[C@H]3C[C@H](NC(=O)[C@H]4CC[C@H](O)CC4)C3)CC2)nc(C(C)(C)C)n1.O=C(O)C(F)(F)F [Compound 7, Trans-N-[trans-3-[2-[4-[2-tert-butyl-6-(2-methoxyethyl)pyrimidin-4-yl]piperazin-1-yl]ethyl]cyclobutyl]-4-hydroxy-cyclohexanecarboxamide; 2,2,2-trifluoroacetic acid] | 20 to 120 | +++ (+++ >50)
COCCc1cc(N2CCN(CC[C@H]3C[C@@H](NC(=O)[C@H]4CC[C@H](O)CC4)C3)CC2)nc(C(C)(C)C)n1.O=C(O)C(F)(F)F [Compound 8, trans-N-[cis-3-[2-[4-[2-tert-butyl-6-(2-methoxyethyl)pyrimidin-4-yl]piperazin-1-yl]ethyl]cyclobutyl]-4-hydroxy-cyclohexanecarboxamide; 2,2,2-trifluoroacetic acid] | 20 to 120 | +++ (+++ >50)
CC(C)(C)c1nc(C2CCC2)cc(N2CCN(CC[C@H]3C[C@H](NC(=O)[C@H]4CC[C@H](O)CC4)C3)CC2)n1 [Compound 9, Trans-N-[trans-3-[2-[4-(2-tert-butyl-6-cyclobutyl-pyrimidin-4-yl)piperazin-1-yl]ethyl]cyclobutyl]-4-hydroxy-cyclohexanecarboxamide] | 20 to 120 | +++ (+++ >50)
CC(C)(C)c1nc(C2CCC2)cc(N2CCN(CC[C@H]3C[C@@H](NC(=O)[C@H]4CC[C@H](O)CC4)C3)CC2)n1 [Compound 10, Trans-N-[cis-3-[2-[4-(2-tert-butyl-6-cyclobutyl-pyrimidin-4-yl)piperazin-1-yl]ethyl]cyclobutyl]-4-hydroxy-cyclohexanecarboxamide] | 20 to 120 | +++ (+++ >50)
COCCc1cc(N2CCN(CC[C@H]3C[C@@H](NC(=O)[C@H]4CC[C@@H](O)CC4)C3)CC2)nc(C(C)(C)C)n1 [Compound 12, Cis-N-[cis-3-[2-[4-[2-tert-butyl-6-(2-methoxyethyl)pyrimidin-4-yl]piperazin-1-yl]ethyl]cyclobutyl]-4-hydroxy-cyclohexanecarboxamide] | 20 to 120 | +++ (+++ >50)
CC(C)(C)c1nc(C2CCC2)cc(N2CCN(CC[C@H]3CC[C@H](NC(=O)[C@H]4C[C@@H](O)C4)CC3)CC2)n1 [Compound 13, Cis-N-[trans-4-[2-[4-(2-tert-butyl-6-cyclobutyl-pyrimidin-4-yl)piperazin-1-yl]ethyl]cyclohexyl]-3-hydroxy-cyclobutanecarboxamide] | > 120 | ++ (++ >20)

Now from value to compound:

microsomal CLint at 0.5 μM [1] [µL/min/mg] | D2/D3, Ki (D2L)/Ki (D3) [2] | Structure (SMILES)
20 to 120 | + (+ >10) | CC(C)(C)c1nc(C2CCC2)cc(N2CCN(CC[C@H]3CC[C@H](NC(=O)C4CC(O)(C(F)(F)F)C4)CC3)CC2)n1 (relative stereo) [Compound 19, N-[trans-4-[2-[4-(2-tert-butyl-6-cyclobutyl-pyrimidin-4-yl)piperazin-1-yl]ethyl]cyclohexyl]-3-hydroxy-3-(trifluoromethyl)cyclobutanecarboxamide]
> 120 | ++ (++ >20) | COCCc1cc(N2CCN(CC[C@H]3CC[C@H](NC(=O)C4CC(O)(C(F)(F)F)C4)CC3)CC2)nc(C(C)(C)C)n1 (relative stereo) [Compound 25, N-[trans-4-[2-[4-[2-tert-butyl-6-(2-methoxyethyl)pyrimidin-4-yl]piperazin-1-yl]ethyl]cyclohexyl]-3-hydroxy-3-(trifluoromethyl)cyclobutanecarboxamide]
< 20 | +++ (+++ >50) | COCCc1cc(N2CCN(CC[C@H]3CC[C@@H](NC(=O)C4CC(O)(C(F)(F)F)C4)CC3)CC2)nc(C(C)(C)C)n1 (relative stereo) [Compound 26, N-[cis-4-[2-[4-[2-tert-butyl-6-(2-methoxyethyl)pyrimidin-4-yl]piperazin-1-yl]ethyl]cyclohexyl]-3-hydroxy-3-(trifluoromethyl)cyclobutanecarboxamide]
> 120 | ++ (++ >20) | CC(C)(C)c1nc(C2CCC2)cc(N2CCN(CC[C@H]3CC[C@H](NC(=O)[C@H]4CC[C@@H](O)CC4)CC3)CC2)n1.O=C(O)C(F)(F)F [Compound 14, Cis-N-[trans-4-[2-[4-(2-tert-butyl-6-cyclobutyl-pyrimidin-4-yl)piperazin-1-yl]ethyl]cyclohexyl]-4-hydroxy-cyclohexanecarboxamide; 2,2,2-trifluoroacetic acid]
> 120 | +++ (+++ >50) | CC(C)(C)c1nc(C2CCC2)cc(N2CCN(CC[C@H]3CC[C@@H](NC(=O)[C@H]4CC[C@@H](O)CC4)CC3)CC2)n1.O=C(O)C(F)(F)F [Compound 15, Cis-N-[cis-4-[2-[4-(2-tert-butyl-6-cyclobutyl-pyrimidin-4-yl)piperazin-1-yl]ethyl]cyclohexyl]-4-hydroxy-cyclohexanecarboxamide; 2,2,2-trifluoroacetic acid]
20 to 120 |  | COCc1cc(N2CCN(CC[C@H]3CC[C@H](NC(=O)[C@H]4C[C@@H](O)C4)CC3)CC2)nc(C(C)(C)C)n1 [Compound 40, cis-N-[trans-4-[2-[4-[2-tert-butyl-6-(methoxymethyl)pyrimidin-4-yl]piperazin-1-yl]ethyl]cyclohexyl]-3-hydroxy-cyclobutanecarboxamide]
